# Type: physicochemical
# Excerpt: In this manner, by use of solid polymer inclusions, optimum active substance loadings can be attained in different polymers. The active substance concentrations in the polymer inclusions can be stabilized at a very high level so that only minimum amounts of additional solvent are needed. In cases where the solubility of the drug in the adhesive is the primary factor limiting skin permeation, the method of preparation described under B) must be chosen.
# When such solid active substance inclusions are introduced into adhesive matrix solutions in dissolved form, the high solubility of the inclusion polymer in the matrix solvent used, for example ethyl acetate, ethanol etc, is important. Rapid dissolution of the amorphous active substance is attained to a level far above its saturation solubility in the pure solvent. For example, at room temperature ethyl acetate dissolves only about 3 wt. % of a gestagenic steroid. By use of a corresponding solid active substance solution, the solubility of the steroid in the solution of ethyl acetate and nonadhesive polymer was increased to nearly 15 wt. % and kept stable. It should be kept in mind in this respect that, based on the volatile solvent ethyl acetate which is to be driven off from the adhesive matrix that is to be dried, the solubility was increased to more than 30 wt. %. […]
smiles,measurement,value
C#C[C@]1(O)C=C[C@H]2[C@@H]3CCC4=CC(=O)CC[C@@H]4[C@H]3CC[C@@]21CC [gestodene],solubility in ethyl acetate,3%
